“And” between values parts separate entries of the source, which are not always exact repeats. Identical values can stand only once. Like-named read-outs stand apart in the source and are kept apart here.
What was measured:
[1] = target: T1, M2 muscarinic receptors (Rattus norvegicus, UniProt P10980); experiment: Displacement of 3H-QNB from rat cerebellum, 50 mM phosphate buffer; type: binding
T1 construct: displacing from rat brain homogenates, cerebellum or frontal cortex; from tissue; host or cells: rat cerebellum homogenates
T1 sequence (P10980 1-466): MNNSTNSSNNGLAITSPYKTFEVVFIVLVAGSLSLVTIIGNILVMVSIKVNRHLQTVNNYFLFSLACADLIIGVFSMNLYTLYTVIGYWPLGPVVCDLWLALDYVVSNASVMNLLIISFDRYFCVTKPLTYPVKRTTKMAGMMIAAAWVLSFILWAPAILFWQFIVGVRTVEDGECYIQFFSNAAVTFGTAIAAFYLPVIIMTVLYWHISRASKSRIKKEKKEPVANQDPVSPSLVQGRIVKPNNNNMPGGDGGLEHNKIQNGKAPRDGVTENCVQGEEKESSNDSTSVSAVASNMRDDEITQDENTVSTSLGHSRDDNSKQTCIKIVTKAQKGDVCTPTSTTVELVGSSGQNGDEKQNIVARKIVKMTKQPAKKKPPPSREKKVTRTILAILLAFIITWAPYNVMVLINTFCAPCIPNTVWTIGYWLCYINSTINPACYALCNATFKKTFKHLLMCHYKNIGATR

[2] = target: T2, M1 muscarinic receptor (Rattus norvegicus, UniProt P08482); experiment: Displacement of 3H-QNB from rat cerebral cortex, 50 mM phosphate buffer; type: binding; settings: for RATIOS c:a: KH2 cerebellum : KH1 cortex (3H-QNB); for % H1 / Ki: cortex, Table 5; for Ki: read-out: 3H-QNB-Binding KH1 (a)
T2 sequence (P08482 1-460): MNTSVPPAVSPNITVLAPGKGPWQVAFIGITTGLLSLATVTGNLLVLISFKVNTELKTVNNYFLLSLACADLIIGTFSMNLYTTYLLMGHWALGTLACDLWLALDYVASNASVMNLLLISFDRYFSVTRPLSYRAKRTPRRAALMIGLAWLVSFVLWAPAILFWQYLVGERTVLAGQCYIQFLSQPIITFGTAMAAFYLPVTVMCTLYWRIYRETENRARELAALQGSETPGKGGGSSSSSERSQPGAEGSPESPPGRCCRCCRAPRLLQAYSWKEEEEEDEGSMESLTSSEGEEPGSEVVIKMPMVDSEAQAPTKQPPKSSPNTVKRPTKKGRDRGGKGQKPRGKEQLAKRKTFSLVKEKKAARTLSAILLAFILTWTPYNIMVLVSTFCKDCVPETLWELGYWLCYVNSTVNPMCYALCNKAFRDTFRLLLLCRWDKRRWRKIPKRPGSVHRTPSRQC

[3] = test system: Male white mice of the CD-1 strain; experiment: Pharmacodynamic profile and general toxicity, Part B (signs, mortality, LD50); type: in vivo; set-up: key to Altered spontaneous motor activity (Mot): increased (inc); decreased (dec); key to Piloerection (Pil) / Hypothermia (Hyp) / Salivation (Sal) / Lacrimation (Lac) / Diarrhea (Dia) / Mydriasis (Myd): sli = slight; mod = moderate; sev = severe; settings: Table 10
From the text: Male white mice of the CD-1 strain (Charles River, UK), within the body weight range of 18-26 g, were used throughout this study, carried out on AF123, AF125 and AF125(N).
Furthermore, these initial trials clearly established that the major signs of reactions to treatment consisted primarily of signs characteristic for potential cholinomimetic activity of the test material, such as tremors, salivation, lacrimation, diarrhea, analgesia, hypothermia and vasodilation. […]

[4] = test system: scopolamine-treated rats; experiment: Passive avoidance (PA) in scopolamine-treated rats; type: in vivo, Sprague-Dawley rats
Protocol: Naive male Sprague-Dawley rats, three months old (obtained from Charles River Breeding, U.K.), were used (weighing 200-300 g.). The passive avoidance (PA) test is according to Fisher et al, Neurosci. Lett. 102: 325 (1989), except that in these rats amnesia was induced by scopolamine.
Eight groups of 17-20 naive rats were used. Each group was divided into two subgroups of 7-10 rats each: subgroup 1 was injected with scopolamine HBr (0.5 mg./kg. in saline, s.c., 15 min. before the shock) and subgroup 2 was injected with saline (1 ml./kg., s.c., 15 min. before the shock). Seven of the groups were treated within one minute after the shock with one of the following doses of the tested compound: 0.1, 0.5, 1, 3, 5, 8, 10 mg./kg. (in saline, i.p.) and one group received saline (1 ml./kg., i.p.).
Eight groups of 18-20 naive rats each were used. Each group was divided into two subgroups of 9-10 rats each: subgroup 1 was injected with scopolamine HBr (0.5 mg./kg. in saline, s.c., 15 min. before the shock) and subgroup 2 was injected with saline (1 ml./kg., s.c., 15 min. before the shock). Seven of the groups were treated, within one minute after the shock, with one of the following doses of AF125(N): 0.1, 0.5, 1, 3, 5, 8 or 10 mg./kg. (in saline, i.p.) and one group received saline (1 ml./kg., i.p.).

[5] = target: T2, M1 muscarinic receptor; experiment: Displacement of 3H-PZ from rat cerebral cortex, 10 mM phosphate buffer; type: binding; set-up: from tissue; host or cells: rat cerebral cortex homogenates; settings: for RATIOS c:a: KH cerebellum (3H-QNB) : KH cortex (3H-PZ)
[6] = test system: muscarinic receptors; experiment: (-)3H-QNB binding to rat cerebral cortex homogenates with and without Cu++ treatment; settings: for Ki: read-out: KL
[7] = 20 mg/kg i.v., animals affected/treated
[8] = post-shock AF125(N) 0.1 mg/kg i.p., pre-shock Scopolamine
[9] = post-shock AF125(N) 0.1 mg/kg i.p., pre-shock saline
[10] = post-shock AF125(N) 0.5 mg/kg i.p., pre-shock Scopolamine, 0.5 mg/kg
[11] = post-shock AF125(N) 0.5 mg/kg i.p., pre-shock saline
[12] = post-shock AF125(N) 1.0 mg/kg i.p., pre-shock Scopolamine
[13] = post-shock AF125(N) 1.0 mg/kg i.p., pre-shock saline
[14] = post-shock AF125(N) 3.0 mg/kg i.p., pre-shock Scopolamine
[15] = post-shock AF125(N) 3.0 mg/kg i.p., pre-shock saline
[16] = post-shock AF125(N) 5.0 mg/kg i.p., pre-shock Scopolamine
[17] = post-shock AF125(N) 5.0 mg/kg i.p., pre-shock saline, 5 mg/kg
[18] = post-shock AF125(N) 8.0 mg/kg i.p., pre-shock Scopolamine
[19] = post-shock AF125(N) 8.0 mg/kg i.p., pre-shock saline
[20] = post-shock AF125(N) 10.0 mg/kg i.p., pre-shock Scopolamine
[21] = post-shock AF125(N) 10.0 mg/kg i.p., pre-shock saline
[22] = cortex, Table 4, read-out: 3H-PZ-Binding KH (a)
[23] = with Cu++ pretreatment (100 µM, 30 minutes)

NC1=NCC2(CN3CCC2CC3)O1 (centres unmarked) [AF125(N), 2-Amino-spiro(1,3-oxazoline-5,3')quinuclidine]
% H ([1]; cerebellum, Table 4): 100% | % H2 ([1]; cerebellum, Table 5): 100% | Ki ([1]; read-out: 3H-QNB-Binding KH2 (c)): 50000 nM | Ki ([1]; read-out: 3H-QNB-Binding KH (c)): 5000 nM | RATIOS c:a [2]: 0.4 | % H1 [2]: 100% | Ki [2]: 112000 nM | Altered spontaneous motor activity (Mot) ([3]; 20 mg/kg i.v.): dec | Mortality no. ([3]; 20 mg/kg i.v.): 0/5 | Mydriasis (Myd) ([3]; 20 mg/kg i.v.): sli | Salivation (Sal) ([3]; 20 mg/kg i.v.): sli | Respiratory distress (Res) [3, 7]: 4/5 | Tremors (Tre) [3, 7]: 3/5 | Mortality no. ([3]; 50 mg/kg i.v.): 5/5 | Mortality time ([3]; 50 mg/kg i.v.): immed | Mortality no. ([3]; 100 mg/kg i.v.): 5/5 | Mortality time ([3]; 100 mg/kg i.v.): immed | Altered spontaneous motor activity (Mot) ([3]; 200 mg/kg p.os): inc | Mortality no. ([3]; 200 mg/kg p.os): 0/5 | Mydriasis (Myd) ([3]; 200 mg/kg p.os): sli | doses with significant enhancing effect on retention latency ([4]; i.p., scopolamine-treated rats): 0.5 mg/kg | Initial latency, Mean [4, 8]: 22.3 s | Retention latency, Mean [4, 8]: 199.7 s | Initial latency, Mean [4, 9]: 21.0 s | Retention latency, Mean [4, 9]: 554.7 s | Initial latency, Mean [4, 10]: 62.9 ± 17.4 s and 62.9 s | Retention latency, Mean [4, 10]: 332.7±80.9 sec. and 332.7* sec. | Initial latency, Mean [4, 11]: 28.1 s | Retention latency, Mean [4, 11]: 600.0 s | Initial latency, Mean [4, 12]: 29.1 s | Retention latency, Mean [4, 12]: 114.8 s | Initial latency, Mean [4, 13]: 22.0 s | Retention latency, Mean [4, 13]: 448.9 s | Initial latency, Mean [4, 14]: 23.1 s | Retention latency, Mean [4, 14]: 243.4 s | Initial latency, Mean [4, 15]: 44.1 s | Retention latency, Mean [4, 15]: 500.1 s | Initial latency, Mean [4, 16]: 24.6 s | Retention latency, Mean [4, 16]: 181.6 s | Initial latency, Mean [4, 17]: 65.1 ± 18.5 s and 65.1 s | Retention latency, Mean [4, 17]: 290.3 ± 52.1 s and 290.3 s | Initial latency, Mean [4, 18]: 16.3 s | Retention latency, Mean [4, 18]: 210.2 s | Initial latency, Mean [4, 19]: 19.3 s | Retention latency, Mean [4, 19]: 552.0 s | Initial latency, Mean [4, 20]: 21.5 s | Retention latency, Mean [4, 20]: 129.7 s | Initial latency, Mean [4, 21]: 4.9 s | Retention latency, Mean [4, 21]: 417.5 s | RATIOS c:a [5]: 83 | % H ([5]; cortex, Table 4): 28% | %L ([5]; cortex, Table 4): 72% | Ki [5, 22]: 600 nM | Ki ([5]; cortex, Table 4, read-out: 3H-PZ-Binding KL (b)): 3000 nM

c1ccc(C2=NCC3(CN4CCC3CC4)O2)cc1 (centres unmarked) [AF125(Ph), 2-Phenyl-spiro(1,3-oxazoline-5,3')quinuclidine]
% H ([1]; cerebellum, Table 4): 100% | Ki ([1]; cerebellum, Table 4, read-out: 3H-QNB-Binding KH (c)): 1370 nM | % H2 ([1]; cerebellum, Table 5): 100% | Ki ([1]; cerebellum, Table 5, read-out: 3H-QNB-Binding KH2 (c)): 1370 nM | RATIOS c:a [2]: 1.7 | % H1 [2]: 100% | Ki [2]: 800 nM | RATIOS c:a [5]: 17.1 | % H ([5]; cortex, Table 4): 100% | Ki [5, 22]: 80 nM

CN1[C@@H]2CC[C@H]1C[C@@H](OC(=O)C(CO)c1ccccc1)C2 (some centres unmarked) [Atropine]
%H (% of high affinity state) [6]: 0%

CN1CCN(CC(=O)N2c3ccccc3C(=O)Nc3cccnc32)CC1 [Pirenzepine]
%H (% of high affinity state) [6, 23]: 64±6% | %H (% of high affinity state) ([6]; without pretreatment): 72±3%

CN1[C@@H]2C[C@@H](OC(=O)[C@H](CO)c3ccccc3)C[C@H]1[C@@H]1O[C@@H]12 [Scopolamine]
%H (% of high affinity state) [6, 23]: 0% | Ki ([6]; with Cu++ pretreatment): 0.1 ± 0.005 nM | %H (% of high affinity state) ([6]; without pretreatment): 0% | Ki ([6]; without pretreatment): 0.09 ± 0.004 nM

Source: patent EP0452101B1, “Spiro bridged and unbridged heterocyclic compounds” (ISRAEL INSTITUTE FOR BIOLOGICAL RESEARCH, priority 1990, dated 1991)
